According to patent publication US20250122171A1, “Substituted Amine Compounds, Compositions and Methods of Use” (Deep Apple Therapeutics, Inc., priority 2023, published 2025):

molecular target: T1, human MRGPRX2 (Homo sapiens, UniProt Q96LB1); assay: MRGPRX2 Activity Assay (IP-1 HTRF, antagonist mode); type: cell-based; settings: FlpIn TRex-MRGPRX2-HEK293 cells; versus 1 μM Cortistatin-14 agonist; 30 minutes preincubation
T1 construct: expressed in transfected cells; host or cells: FlpIn TRex HEK293 (TRex-MRGPRX2-HEK), doxycycline-induced
T1 sequence (Q96LB1 1-330): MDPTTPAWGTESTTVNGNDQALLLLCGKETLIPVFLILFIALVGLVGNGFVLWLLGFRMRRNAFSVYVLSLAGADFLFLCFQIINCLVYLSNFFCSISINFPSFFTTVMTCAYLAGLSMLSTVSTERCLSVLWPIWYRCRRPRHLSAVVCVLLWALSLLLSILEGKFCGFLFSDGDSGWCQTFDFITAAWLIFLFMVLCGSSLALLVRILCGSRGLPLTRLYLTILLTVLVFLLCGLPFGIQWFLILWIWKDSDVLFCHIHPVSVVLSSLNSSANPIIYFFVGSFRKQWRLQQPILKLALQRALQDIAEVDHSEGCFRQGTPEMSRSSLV
Procedure: FlpIn TRex-MRGPRX2-HEK293 cells (herein TRex-MRPGRX2-HEK) stably transfected to express human MRGPRX2 were maintained at 37° C. with 5% CO2 and grown in DMEM supplemented with 10% FBS, 1% L-Glutamate, 1% penicillin/streptomycin, 100 ug/mL Hygromycin B, and 15 ug/mL Blasticidin.
GOI (MRGPRX2) expression was induced with 100 ng/mL of Doxycycline 18-24 hours prior to experiment, in flask. On the day of experiment, cells were lifted with TripLE Express and seeded in 384-well white walled opaque bottomed, assay plates, at 8,000 cells per well in 5 uL freshly made assay buffer (HBSS, 20 mM HEPES, 0.1% BSA and 10 mM LiCl). Compounds solubilized in 100% DMSO at 30 mM were serially diluted (1:4) first in 100% DMSO, and an intermediate plate of assay buffer was used to establish a final top concentration of 30 uM (in assay plate). Final DMSO concentration was kept constant at 1% across assay plates. […], at 30 mM stock concentration was solubilized in HBSS+0.1% BSA, stored at −20° C. in 5 μL aliquots and discarded after one freeze-thaw cycle. […].
Antagonist equilibrium was established with 30 minutes preincubation, followed by no wash, direct addition, and stimulation of agonist for 1 hour at 37° C./5% CO2. IP-1 standards and HTRF detection reagents were added according to the IP-one Gq kit protocol purchased from CisBio (part number 62IPAPEJ). The plate was read on an EnVision XCite plate reader. The HTRF ratio was then calculated from raw data (channel1/channel2×10,000) and analyzed using either GraphPad Prism or a custom Python script to calculate IC50 using Log[Antagonist] vs. response (4 parameter) nonlinear regression.

| IC50 [nM] | SMILES |
| --- | --- |
| 2950 | C[C@H](C(=O)Nc1cn(Cc2ccc(F)cc2F)cn1)N1CCC(F)(F)[C@@H](c2cc[n+]([O-])cc2)C1 (single isomer, unassigned) [Compound 2] |
| > 10000 | C[C@@H](C(=O)Nc1cn(Cc2ccc(F)cc2F)cn1)N1CCC(F)(F)[C@H](c2cc[n+]([O-])cc2)C1 (single isomer, unassigned) [Compound 3] |
| > 10000 | C[C@H](C(=O)Nc1cn(Cc2ccc(F)cc2F)cn1)N1CCC(F)(F)[C@H](c2cc[n+]([O-])cc2)C1 (single isomer, unassigned) [Compound 4] |
| 1780 | C[C@@H](C(=O)Nc1cn(Cc2cc(F)cc(F)c2)cn1)N1CCC(F)(F)[C@@H](c2cc[n+]([O-])cc2)C1 (single isomer, unassigned) [Compound 6] |
| 9290 | C[C@H](C(=O)Nc1cn(Cc2ccc(F)cc2F)c(C(F)(F)F)n1)N1CCC(F)(F)[C@@H](c2cc[n+]([O-])cc2)C1 (single isomer, unassigned) [Compound 8] |
| 1610 | Cc1nc(NC(=O)[C@@H](C)N2CCC(F)(F)[C@@H](c3cc[n+]([O-])cc3)C2)cn1Cc1ccc(F)cc1F (single isomer, unassigned) [Compound 10] |
| 196 | C[C@@H](C(=O)Nc1nc2cc3c(cc2s1)OCO3)N1CCC(F)(F)[C@@H](c2cc[n+]([O-])cc2)C1 (single isomer, unassigned) [Compound 12] |
| 233 | C[C@H](C(=O)Nc1cn([C@@H](C)c2cc(F)cc(F)c2)cn1)N1CCC(F)(F)[C@@H](c2cc[n+]([O-])cc2)C1 (single isomer, unassigned) [Compound 13] |
| 465 | C[C@H](c1cc(F)cc(F)c1)n1cnc(NC(=O)[C@H](C)N2CCC(F)(F)[C@@H](c3cc[n+]([O-])cc3)C2)c1 (single isomer, unassigned) [Compound 14] |
| > 10000 | C[C@@H](C(=O)Nc1cn([C@@H](C)c2cc(F)cc(F)c2)cn1)N1CCC(F)(F)[C@@H](c2cc[n+]([O-])cc2)C1 (single isomer, unassigned) [Compound 15] |
| > 10000 | C[C@H](C(=O)Nc1cn([C@H](C)c2cc(F)cc(F)c2)cn1)N1CCC(F)(F)[C@@H](c2cc[n+]([O-])cc2)C1 (single isomer, unassigned) [Compound 16] |
| 125 | Cc1nc(NC(=O)[C@H](C)N2CCC(F)(F)[C@@H](c3cc[n+]([O-])cc3)C2)cn1Cc1cc(F)cc(C#N)c1 (single isomer, unassigned) [Compound 17] |
| > 10000 | Cc1nc(NC(=O)[C@@H](C)N2CCC(F)(F)[C@@H](c3cc[n+]([O-])cc3)C2)cn1Cc1cc(F)cc(C#N)c1 (single isomer, unassigned) [Compound 18] |
| 193 | Cc1nc(NC(=O)[C@@H](C)N2CCC(F)(F)[C@@H](c3cc[n+]([O-])cc3)C2)cn1Cc1cc(F)cc(F)c1 (single isomer, unassigned) [Compound 20] |
| 124 | Cc1nc(NC(=O)[C@@H](C)N2CCC(F)(F)CC2)cn1Cc1cc(F)cc(F)c1 (single isomer, unassigned) [Compound 22] |
| 700 | Cc1nc(NC(=O)[C@H](C)N2CCOCC2)cn1Cc1cc(F)cc(F)c1 (single isomer, unassigned) [Compound 23] |
| 3910 | Cc1nc(NC(=O)[C@@H](C)N2CCOCC2)cn1Cc1cc(F)cc(F)c1 (single isomer, unassigned) [Compound 24] |
| > 10000 | C[C@@H](C(=O)Nc1cn(Cc2cc(F)cc(F)c2)c(C(F)(F)F)n1)N1CCC(F)(F)[C@@H](c2cc[n+]([O-])cc2)C1 (single isomer, unassigned) [Compound 25] |
| 587 | C[C@@H](C(=O)Nc1coc(Cc2cc(F)cc(F)c2)n1)N1CCC(F)(F)[C@@H](c2cc[n+]([O-])cc2)C1 (single isomer, unassigned) [Compound 27] |
| 432 | C[C@@H](C(=O)Nc1cn(Cc2cc(F)cc(F)c2)cn1)N1CCC(F)(F)[C@@H](c2ccc(=O)[nH]c2)C1 (single isomer, unassigned) [Compound 54] |
| > 10000 | C[C@H](C(=O)Nc1noc(Cc2cc(F)cc(F)c2)n1)N1CCC(F)(F)[C@@H](c2cc[n+]([O-])cc2)C1 (single isomer, unassigned) [Compound 57] |

| IC50 [nM] | SMILES |
| --- | --- |
| > 10000 | C[C@@H](C(=O)Nc1nc(Cc2cc(F)cc(F)c2)no1)N1CCC(F)(F)[C@@H](c2cc[n+]([O-])cc2)C1 (single isomer, unassigned) [Compound 58] |
| 432 | C[C@H](C(=O)Nc1nc(Cc2cc(F)cc(F)c2)no1)N1CCC(F)(F)[C@@H](c2cc[n+]([O-])cc2)C1 (single isomer, unassigned) [Compound 59] |
| > 30000 | C[C@@H](C(=O)Nc1cn(Cc2cc(F)cc(F)c2)c(CF)n1)N1CCC(F)(F)[C@@H](c2cc[n+]([O-])cc2)C1 (single isomer, unassigned) [Compound 60] |
| 477 | C[C@H](C(=O)Nc1cn(Cc2cc(F)cc(F)c2)c(CF)n1)N1CCC(F)(F)[C@@H](c2cc[n+]([O-])cc2)C1 (single isomer, unassigned) [Compound 61] |
| 4330 | C[C@@H](C(=O)Nc1cn(Cc2cc(F)cc(F)c2)cn1)N1CCC(F)(F)[C@@H](c2ccc(=O)n(C)c2)C1 (single isomer, unassigned) [Compound 67] |
| > 30000 | C[C@@H](C(=O)Nc1cn(Cc2cc(F)cc(F)c2)cn1)N1CCC(F)(F)[C@H](c2ccc(=O)n(C)c2)C1 (single isomer, unassigned) [Compound 69] |
| > 30000 | C[C@H](C(=O)Nc1cn(Cc2cc(F)cc(F)c2)cn1)N1CCC(F)(F)[C@H](c2ccc(=O)n(C)c2)C1 (single isomer, unassigned) [Compound 70] |
| 2360 | C[C@@H](C(=O)Nc1cn(Cc2cc(F)cc(F)c2)cn1)N1CCC(F)(F)[C@@H](c2c[nH]c(=O)c(CO)c2)C1 (single isomer, unassigned) [Compound 71] |
| 8560 | C[C@@H](C(=O)Nc1cn(Cc2cc(F)cc(F)c2)cn1)N1CCC(F)(F)[C@H](c2c[nH]c(=O)c(CO)c2)C1 (single isomer, unassigned) [Compound 73] |
| > 30000 | C[C@H](C(=O)Nc1cn(Cc2cc(F)cc(F)c2)cn1)N1CCC(F)(F)[C@H](c2c[nH]c(=O)c(CO)c2)C1 (single isomer, unassigned) [Compound 74] |
| > 30000 | C[C@H](C(=O)Nc1cn(Cc2cc(F)cc(F)c2)c(Cl)n1)N1CCC(F)(F)[C@@H](c2cc[n+]([O-])cc2)C1 (single isomer, unassigned) [Compound 81] |
| 1170 | C[C@@H](C(=O)Nc1cn(Cc2cc(F)cc(F)c2)c(C(F)F)n1)N1CCC(F)(F)[C@@H](c2cc[n+]([O-])cc2)C1 (single isomer, unassigned) [Compound 82] |
| 12700 | C[C@@H](C(=O)Nc1nc2ccccc2s1)N1CCC(F)(F)[C@@H](c2cc[n+]([O-])cc2)C1 (single isomer, unassigned) [Compound 84] |
| 1180 | C[C@H](C(=O)Nc1cn2c(n1)CC[C@H]2c1cc(F)cc(F)c1)N1CCC(F)(F)[C@@H](c2cc[n+]([O-])cc2)C1 (single isomer, unassigned) [Compound 486] |
| 13800 | C[C@@H](C(=O)Nc1cn2c(n1)CC[C@H]2c1cc(F)cc(F)c1)N1CCC(F)(F)[C@@H](c2cc[n+]([O-])cc2)C1 (single isomer, unassigned) [Compound 487] |
| 8810 | C[C@H](C(=O)Nc1cn2c(n1)CC[C@@H]2c1cc(F)cc(F)c1)N1CCC(F)(F)[C@@H](c2cc[n+]([O-])cc2)C1 (single isomer, unassigned) [Compound 488] |
| 1640 | C[C@@H](C(=O)Nc1cn(Cc2cc(F)cc(F)c2)c(C(F)F)n1)N1CCC(F)(F)[C@H](c2c[nH]c(=O)c(CO)c2)C1 (single isomer, unassigned) [Compound 491] |
| > 30000 | C[C@@H](C(=O)Nc1cn2c(n1)CC[C@@H]2c1cc(F)cc(F)c1)N1CCC(F)(F)[C@H](c2ccc(=O)[nH]c2)C1 (single isomer, unassigned) [Compound 495] |
| 3470 | C[C@@H](C(=O)Nc1cn2c(n1)CC[C@H]2c1cc(F)cc(F)c1)N1CCC(F)(F)[C@H](c2ccc(=O)[nH]c2)C1 (single isomer, unassigned) [Compound 496] |
| > 30000 | C[C@@H](C(=O)Nc1cn2c(n1)CC[C@@H]2c1cc(F)cc(F)c1)N1CCCCC1 (single isomer, unassigned) [Compound 497] |
